Measurements taken from patent publication US20260256919A1, “BIOENHANCERS” (priority 2022, published 2026).
Where two headings read alike, the source gives them in different places.

What was measured:
CYP2B6 = target: T1, CYP2B6 (Homo sapiens, UniProt P20813); details: microsomes
T1 sequence (P20813 1-491): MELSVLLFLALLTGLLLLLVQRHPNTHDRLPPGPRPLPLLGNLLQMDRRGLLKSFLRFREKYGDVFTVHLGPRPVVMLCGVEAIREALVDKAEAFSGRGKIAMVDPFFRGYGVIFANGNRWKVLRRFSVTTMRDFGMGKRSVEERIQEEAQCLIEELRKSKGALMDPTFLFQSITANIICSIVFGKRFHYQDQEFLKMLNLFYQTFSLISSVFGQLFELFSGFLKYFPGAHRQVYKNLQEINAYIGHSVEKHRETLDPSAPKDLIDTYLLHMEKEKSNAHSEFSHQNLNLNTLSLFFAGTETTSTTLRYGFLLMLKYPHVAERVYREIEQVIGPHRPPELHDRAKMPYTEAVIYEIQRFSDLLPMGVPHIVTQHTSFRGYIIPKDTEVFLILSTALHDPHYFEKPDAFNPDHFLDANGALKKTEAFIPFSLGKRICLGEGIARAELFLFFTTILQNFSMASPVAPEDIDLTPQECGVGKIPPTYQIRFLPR

CYP1A2 = target: T2, CYP1A2 (Homo sapiens, UniProt P05177); details: microsomes; for CYP1A2 activity expressed as % Vehicle Control: human, 10 min, pH 7.4
T2 sequence (P05177 1-516): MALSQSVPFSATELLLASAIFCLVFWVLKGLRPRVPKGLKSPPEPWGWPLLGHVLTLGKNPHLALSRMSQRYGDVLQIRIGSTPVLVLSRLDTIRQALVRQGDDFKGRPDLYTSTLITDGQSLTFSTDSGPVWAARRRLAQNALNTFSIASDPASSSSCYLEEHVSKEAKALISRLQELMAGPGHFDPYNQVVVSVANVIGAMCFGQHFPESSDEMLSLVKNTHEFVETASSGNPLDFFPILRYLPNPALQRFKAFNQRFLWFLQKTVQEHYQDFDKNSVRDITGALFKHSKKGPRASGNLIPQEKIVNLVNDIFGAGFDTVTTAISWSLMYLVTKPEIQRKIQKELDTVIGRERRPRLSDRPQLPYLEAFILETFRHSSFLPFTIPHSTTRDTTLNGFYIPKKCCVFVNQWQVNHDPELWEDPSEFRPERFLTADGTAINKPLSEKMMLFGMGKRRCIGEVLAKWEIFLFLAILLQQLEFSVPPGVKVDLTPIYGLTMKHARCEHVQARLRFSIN

CYP3A4/5 [1] = experiment: in vitro; details: human, microsomes, pH 7.4
CYP3A4/5 [2] = experiment: Direct CYP3A4/5 inhibition, midazolam 1′-hydroxylation in pooled human liver microsomes; details: pH 7.4, probe midazolam 2 μM (1′-hydroxylation)
CYP2C8 = target: T3, CYP2C8 (Homo sapiens, UniProt P10632); details: microsomes; for CYP2C8 activity expressed as % Vehicle Control: human, 10 min, pH 7.4
T3 sequence (P10632 1-490): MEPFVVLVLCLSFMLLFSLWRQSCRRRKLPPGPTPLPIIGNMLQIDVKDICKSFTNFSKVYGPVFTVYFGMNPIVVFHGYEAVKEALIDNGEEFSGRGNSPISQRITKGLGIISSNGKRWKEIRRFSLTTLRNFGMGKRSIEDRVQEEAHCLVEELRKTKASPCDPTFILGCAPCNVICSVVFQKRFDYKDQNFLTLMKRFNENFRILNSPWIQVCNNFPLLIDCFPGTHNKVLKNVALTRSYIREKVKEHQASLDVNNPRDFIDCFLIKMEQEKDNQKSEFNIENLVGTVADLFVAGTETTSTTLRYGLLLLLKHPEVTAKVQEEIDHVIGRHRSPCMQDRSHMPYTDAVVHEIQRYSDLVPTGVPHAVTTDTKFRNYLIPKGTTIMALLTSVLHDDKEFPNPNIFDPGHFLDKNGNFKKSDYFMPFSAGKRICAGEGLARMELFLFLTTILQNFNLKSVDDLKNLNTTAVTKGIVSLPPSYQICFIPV

CYP2C9 = CYP2C9 (Homo sapiens, UniProt P11712); details: for CYP2C9 activity expressed as % Vehicle Control: HLM, diclofenac
CYP2C9, sequence (P11712 whole entry): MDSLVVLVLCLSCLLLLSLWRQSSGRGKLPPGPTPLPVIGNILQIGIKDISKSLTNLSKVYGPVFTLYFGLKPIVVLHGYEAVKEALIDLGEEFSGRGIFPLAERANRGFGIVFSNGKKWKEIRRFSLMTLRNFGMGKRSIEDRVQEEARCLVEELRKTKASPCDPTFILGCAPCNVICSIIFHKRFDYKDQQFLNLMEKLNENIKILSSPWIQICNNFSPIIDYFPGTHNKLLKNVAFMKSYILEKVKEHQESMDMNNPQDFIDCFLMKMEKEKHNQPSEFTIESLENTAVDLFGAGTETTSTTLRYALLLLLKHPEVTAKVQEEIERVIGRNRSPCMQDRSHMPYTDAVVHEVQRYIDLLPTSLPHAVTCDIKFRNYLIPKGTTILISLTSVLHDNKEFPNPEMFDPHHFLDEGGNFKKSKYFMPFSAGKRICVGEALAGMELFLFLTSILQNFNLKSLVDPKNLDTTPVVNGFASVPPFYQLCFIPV

CYP2C19 = CYP2C19 (Homo sapiens, UniProt P33261); details: microsomes
CYP2C19, sequence (P33261 whole entry): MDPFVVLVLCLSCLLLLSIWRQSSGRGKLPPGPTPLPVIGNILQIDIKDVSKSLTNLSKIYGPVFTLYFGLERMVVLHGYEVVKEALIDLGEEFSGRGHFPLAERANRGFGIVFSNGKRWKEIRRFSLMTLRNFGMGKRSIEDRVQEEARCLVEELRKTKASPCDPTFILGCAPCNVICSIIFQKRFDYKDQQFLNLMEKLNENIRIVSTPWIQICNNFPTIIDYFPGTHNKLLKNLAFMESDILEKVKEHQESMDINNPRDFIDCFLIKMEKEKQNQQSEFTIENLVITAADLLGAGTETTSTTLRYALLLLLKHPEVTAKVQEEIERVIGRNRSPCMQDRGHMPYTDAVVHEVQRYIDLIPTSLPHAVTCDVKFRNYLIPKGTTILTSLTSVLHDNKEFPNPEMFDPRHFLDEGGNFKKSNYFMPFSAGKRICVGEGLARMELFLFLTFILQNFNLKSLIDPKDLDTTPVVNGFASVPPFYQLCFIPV

CYP2D6 = CYP2D6 (Homo sapiens, UniProt P10635); details: microsomes
CYP2D6, sequence (P10635 whole entry): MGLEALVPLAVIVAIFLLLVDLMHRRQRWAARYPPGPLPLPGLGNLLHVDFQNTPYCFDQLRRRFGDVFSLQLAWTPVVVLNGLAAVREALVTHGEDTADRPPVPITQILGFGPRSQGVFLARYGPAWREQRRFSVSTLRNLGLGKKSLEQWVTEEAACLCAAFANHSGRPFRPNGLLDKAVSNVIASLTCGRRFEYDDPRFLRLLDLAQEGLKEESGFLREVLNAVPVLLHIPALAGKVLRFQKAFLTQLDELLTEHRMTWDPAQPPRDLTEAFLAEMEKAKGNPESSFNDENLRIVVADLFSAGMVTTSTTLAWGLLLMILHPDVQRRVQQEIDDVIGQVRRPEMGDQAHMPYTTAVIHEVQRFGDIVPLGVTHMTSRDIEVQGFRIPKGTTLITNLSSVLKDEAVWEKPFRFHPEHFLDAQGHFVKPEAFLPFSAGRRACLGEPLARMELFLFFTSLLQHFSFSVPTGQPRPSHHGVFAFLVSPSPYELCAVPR

CYP3A4/5 [3] = details: microsomes
CYP3A4/5 [4] = details: microsomes; remark: listed apart in the source
[5] = in vivo, 5 mg

N[C@@H]1C[C@H]1c1ccccc1 (racemic) [Tranylcypromine, reference compound]
IC50 (CYP2B6): 3400 nM

Cc1nc2c([nH]1)c(=O)n(C)c(=O)n2Cc1ccco1 [Furafylline]
CYP1A2 activity expressed as % Vehicle Control (CYP1A2; 0.01 μM): 103.9 % Vehicle Control | CYP1A2 activity expressed as % Vehicle Control (CYP1A2; 0.1 μM): 110.2 % Vehicle Control | CYP1A2 activity expressed as % Vehicle Control (CYP1A2; 1 μM): 88.5 % Vehicle Control | CYP1A2 activity expressed as % Vehicle Control (CYP1A2; 10 μM): 41.0 % Vehicle Control | CYP1A2 activity expressed as % Vehicle Control (CYP1A2; 100 μM): 10.1 % Vehicle Control

CCC(C)n1ncn(-c2ccc(N3CCN(c4ccc(OCC5COC(Cn6cncn6)(c6ccc(Cl)cc6Cl)O5)cc4)CC3)cc2)c1=O (stereo not drawn) [Itraconazole]
IC50 (CYP3A4/5 [1]): 30 nM | IC50 at 5 min (CYP3A4/5 [2]): 210 nM

CC(C)(O)c1ccccc1CC[C@@H](SCC1(CC(=O)O)CC1)c1cccc(/C=C/c2ccc3ccc(Cl)cc3n2)c1 [Montelukast, reference compound]
CYP2C8 activity expressed as % Vehicle Control (CYP2C8; 0.001 μM): 96.0 % Vehicle Control | CYP2C8 activity expressed as % Vehicle Control (CYP2C8; 0.01 μM): 91.3 % Vehicle Control | CYP2C8 activity expressed as % Vehicle Control (CYP2C8; 0.1 μM): 66.2 % Vehicle Control | CYP2C8 activity expressed as % Vehicle Control (CYP2C8; 1 μM): 13.3 % Vehicle Control | CYP2C8 activity expressed as % Vehicle Control (CYP2C8; 10 μM): 1.3 % Vehicle Control

Nc1ccc(S(=O)(=O)Nc2ccnn2-c2ccccc2)cc1 [Sulfaphenazole, reference compound]
CYP2C9 activity expressed as % Vehicle Control (CYP2C9; positive control 0.0025 μM): 102.1 % Vehicle Control | CYP2C9 activity expressed as % Vehicle Control (CYP2C9; positive control 0.025 μM): 95.7 % Vehicle Control | CYP2C9 activity expressed as % Vehicle Control (CYP2C9; positive control 0.25 μM): 47.2 % Vehicle Control | CYP2C9 activity expressed as % Vehicle Control (CYP2C9; positive control 2.5 μM): 10.1 % Vehicle Control | CYP2C9 activity expressed as % Vehicle Control (CYP2C9; positive control 25 μM): 1.9 % Vehicle Control

phenylcapsaicyn
Ki (CYP1A2): 340 nM | IC50 (CYP2B6): > 50000 nM | Inhibition of CYP2B6 in words (CYP2B6): no significant inhibition | IC50 (CYP2C8): > 50000 nM | Inhibition of CYP2C8 in words (CYP2C8): no significant inhibition | IC50 (CYP2C9; microsomes): > 50000 nM | Inhibition of CYP2C9 in words (CYP2C9; microsomes): no significant inhibition | IC50 (CYP2C19): > 50000 nM | Inhibition of CYP2C19 in words (CYP2C19): no significant inhibition | Ki (CYP2D6): 550 nM | IC50 (CYP3A4/5 [3]): > 50000 nM | Inhibition of CYP3A4/5 in words (midazolam) (CYP3A4/5 [3]): no significant inhibition | IC50 (CYP3A4/5 [4]): > 50000 nM | Inhibition of CYP3A4/5 in words (testosterone) (CYP3A4/5 [4]): no significant inhibition | Cmax [5]: ~600 nM
